{"source": "patent US20120264825A1", "about": "“Amino Acid Perhydrates, Process for Their Preparation and Uses thereof” (priority 2009, published 2012)", "key": {"[1]": {"settings": "peak appears above the melting temperature; 2 degree/min under nitrogen flow", "protocol": "TG and DSC studies were performed on Thermobalance, TG50 and differential scanning calorimeter, DSC 822 (Mettler, Toledo) in the range 25-200° C. under nitrogen flow at a heating rate of 2 degree/min."}, "[2]": {"protocol": "The compounds may be kept, for example, in closed vessels in a 4° C. refrigerator."}}}
{"smiles": "N[C@@H](CO)C(=O)O.OO", "note": "[Example 1, L-Serine Mono Hydrogen Peroxide Solvate C3H7NO3.H2O2]", "values": [{"measurement": "exothermic decomposition peak (DSC)", "setting": "[1]", "result": "about 85 °C"}, {"measurement": "hydrogen peroxide concentration on storage", "setting": "[2]; room temperature, several months", "result": "maintained constant hydrogen peroxide concentration for several months"}, {"measurement": "loss of active oxygen on storage", "setting": "[2]; stored at room temperature for at least three weeks", "result": "no loss of active oxygen"}]}
